Results published in BindingDB's records for doi:10.1021/jm970640l (University of Versailles Saint-Quentin-en-Yvelines, 1998).
pIC50: −log10 of the molar value.

Assay: Inhibitory activity against hydrolysis of Gly-Pro-pNa by Dipeptidyl peptidase IV purified from CD26-negative C8166 cells

pIC50: 6.20
SMILES: CCCCCCCC[S+](CCCCCCCC)Cc1ccc2cc1C(=O)NCC(=O)NCC(=O)NCCCC[C@H](N)C(=O)N1CCC[C@H]1C(=O)N2 [Cyclo(Lys(alphaH2+)-Pro-Aba-[CH2SOct2-]-Gly2-), 2CF3COO-]
